The target in data set [1] is T1, CYP2D6 (Homo sapiens, UniProt P10635). As to conditions: degree of metabolism by parent compound remaining after 10 min; 5 μM substrate, recombinant CYP2D6 microsomes, 1 mM NADPH, 37° C.
Description: Test compounds were prepared as 20 mM stock solutions in DMSO and diluted to 2 mM in acetonitrile. […] Unless otherwise specified, reaction mixtures consisted of 5 μM substrate, 30 pmol/mL recombinant CYP2D6 microsomes (GenTest™) and 1 mM NADPH prepared in buffer to a final volume of 750 μl. Reactions were performed at 37° C. in 1.2 mL marsh tubes. Reactions were incubated for 3 min prior to adding NADPH. Aliquots of the reaction mixture (100 μL) were removed at 0 (immediately after the addition of NADPH), 5, 10, 20 and 30 min and quenched with 200 μL of acetonitrile (containing 2.5 μM terfenadine). Samples were placed at −20° C. for 1 hr and centrifuged using a Thermo IEC Centra GP8R table top centrifuge (3,000 rpm for 10 min). The supernatant fraction was transferred to 500 μL 96-well blocks for LC-MS analysis.
LC-MS analysis was performed using a HPLC system consisting of a Shimadzu LC-10AD pump and Perkin Elmer Series 200 Autosampler coupled to an Applied Biosystems Sciex API 3000 triple-quadrapole mass spectrometer. Test compounds were separated on an Agilent ZORBAX® Bonus-RP column (30×2.1 mm, 3.5 μm particle size) maintained at 30° C. […] The column was equilibrated with 100% buffer A for 2 min between each run. The HPLC eluant was directly introduced into the mass spectrometer equipped with a Turbo Ionspray interface operated at 4500 V in the positive mode. […] Compounds were detected by single ion monitoring using the following parameters: declustering potential, 35 V; focusing potential, 200 V; exit potential, 10 V.
In data set [2] the target is T1, CYP2D6. As to conditions: 20 μM substrate; for CL rank order: degree of metabolism by rate of ROS-dependent CL production, reconstituted recombinant CYP2D6, 1 mM NADPH, 37° C.
Description: Stock solutions of NADPH were freshly prepared before each experiment in buffer. Test compounds were prepared as 20 mM stock solutions in DMSO and diluted to 2 mM in acetonitrile. […] Reactions were performed at 37° C. in 500 μL deep 96-well blocks. Reactions were incubated for 3 min prior to adding NADPH. Aliquots of the reaction mixture (10 μL) were removed at 0 (immediately after the addition of NADPH), 5,10, 20 and 30 min and quenched with 20 μL of acetonitrile and placed in 96-well polypropylene plates. ROS formation was quantified using a chemiluminescence reaction as described below.

The structures appear in SMILES notation.

T1 sequence (P10635 whole entry): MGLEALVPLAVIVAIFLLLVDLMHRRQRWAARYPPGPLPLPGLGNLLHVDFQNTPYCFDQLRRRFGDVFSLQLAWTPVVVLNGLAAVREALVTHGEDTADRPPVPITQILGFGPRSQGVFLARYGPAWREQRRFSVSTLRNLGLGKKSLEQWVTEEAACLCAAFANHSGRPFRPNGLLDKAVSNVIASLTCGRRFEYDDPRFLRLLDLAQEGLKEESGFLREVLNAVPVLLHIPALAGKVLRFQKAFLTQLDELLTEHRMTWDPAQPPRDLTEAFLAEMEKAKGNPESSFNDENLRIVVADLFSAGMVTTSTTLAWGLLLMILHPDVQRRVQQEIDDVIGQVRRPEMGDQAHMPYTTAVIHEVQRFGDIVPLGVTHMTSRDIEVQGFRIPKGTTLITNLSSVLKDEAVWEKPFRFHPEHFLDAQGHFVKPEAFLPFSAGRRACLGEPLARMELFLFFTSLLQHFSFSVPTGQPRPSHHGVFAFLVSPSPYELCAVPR

With `C=CCc1ccccc1OCC(O)CNC(C)C` (stereo not drawn) [alprenolol], the LC-MS rank order on CYP2D6 [1] is 3 (high (less than 20% of parent compound remaining after 10 min)). On CYP2D6 [2], the CL rank order is listed as 3 (high (a rate of CL production above 800 Units/min)).
As to `COc1ccc(CCN2CCC(Nc3nc4ccccc4n3Cc3ccc(F)cc3)CC2)cc1` [astemizole], the LC-MS rank order on CYP2D6 [1] was 2 (moderate (between 20 and 75% of parent compound remaining after 10 min)). At CYP2D6 [2], the CL rank order is 2 (moderate (a rate of CL production between 400 (background) and 800 CL Units/min)).
Turning to `NC(=O)N1c2ccccc2C=Cc2ccccc21` [carbamazepine], the LC-MS rank order on CYP2D6 [1] is on record as 1 (low (more than 75% of parent compound remaining after 10 min)). On CYP2D6 [2], the CL rank order is recorded as 1 (low (a rate of CL production equal to or below that observed in the absence of substrate (400 Units/min))).
As to `COc1ccc2c(c1)[C@]13CCCC[C@@H]1[C@H](C2)N(C)CC3` [dextromethorphan], the LC-MS rank order at CYP2D6 [1] is 2 (moderate (between 20 and 75% of parent compound remaining after 10 min)). The “increase in the rate of CL production over background (no substrate)” value at CYP2D6 [2] (CYP2D6 reaction, 30 min time course) is “approximately two-fold”. Also, the CL rank order on CYP2D6 [2] is 2 (moderate (a rate of CL production between 400 (background) and 800 CL Units/min)).
Consider `COc1ccc([C@@H]2Sc3ccccc3N(CCN(C)C)C(=O)[C@@H]2OC(C)=O)cc1` [diltiazem], for which the LC-MS rank order at CYP2D6 [1] is 1 (low (more than 75% of parent compound remaining after 10 min)). The CL rank order on CYP2D6 [2] is 1 (low (a rate of CL production equal to or below that observed in the absence of substrate (400 Units/min))).
`CCC(C)n1ncn(-c2ccc(N3CCN(c4ccc(OCC5COC(Cn6cncn6)(c6ccc(Cl)cc6Cl)O5)cc4)CC3)cc2)c1=O` (stereo not drawn) [itraconazole]: the LC-MS rank order at CYP2D6 [1] is on record as 1 (low (more than 75% of parent compound remaining after 10 min)). Besides, the CL rank order on CYP2D6 [2] is on record as 1 (low (a rate of CL production equal to or below that observed in the absence of substrate (400 Units/min))).
As for `O=C(CCCN1CCC(O)(c2cccc(C(F)(F)F)c2)CC1)c1ccc(F)cc1` [trifluperidol], at CYP2D6 [1], the LC-MS rank order is 1 (low (more than 75% of parent compound remaining after 10 min)). Further, on CYP2D6 [2], the CL rank order was 2 (moderate (a rate of CL production between 400 (background) and 800 CL Units/min)).
